Data on 22 molecules can be found in patent US20250368628A1, “METHODS AND COMPOUNDS FOR MODULATING INHERITED GENETIC DISEASES” (Design Therapeutics, Inc., priority 2022, published 2025).

For assay [1], the system named is Myotonic Dystrophy 1 affected patient fibroblasts (Coriel GM04602; 1600 CTG repeats). Put plainly: DM1 foci reduction assay (EC50 assay; CAG10-Cy3 FISH, foci per nucleus). The class given is cell-based. Conditions: Homo sapiens, Fibroblast; DM1 patient fibroblasts, 48 h treatment, foci per nucleus; read-out: DM1 EC50, 48 h. An outline of the steps: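 Foci per nucleus counted by 20× imaging of 4 areas per well, after overnight FISH with 5 nM CAG10-Cy3 and DAPI staining of fixed, permeabilized cells. DM1 fibroblasts (GM04602, 1600 CTG) were dosed 48 h at 37 °C, 8 points, 3-fold dilutions, 3 μM top concentration.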

The subject of the next assay is F35T cells. In words: Foci reduction in FECD (CAG10-Cy3 FISH, foci per nucleus). The class given is cell-based. The following applies: F35T cells, 48 h treatment, foci per nucleus; read-out: FECD EC50, 48 h. The method, then: F35T cells were cultured in media containing Opti-MEM (ThermoFisher) supplemented with 8% FBS, 20 μg/mL ascorbic acid, […] CaCl2, 0.08% chondroitin sulfate, 1×Pen/Strep, 100 μg/mL bovine pituitary extract, 5 ng/mL epidermal growth factor, and 20 ng/mL nerve growth factor. Throughout the culture, cells were maintained in an incubator at 37° C. and 5% CO2. Media was refreshed every 48 hours. Once cells reached adequate confluency, they were harvested and seeded in 96 well plates with a density of 5000 cells per well in 200 μL of the supplemented Opti-MEM media. Cells were returned to the incubator and left to settle for 24 hours at 37° C. and 5% CO2. Cells were then treated in 8-point dose response with compounds or negative controls and incubated for 48 hours at 37° C. and 5% CO2. After treatment, cells were fixed with 4% PFA for 20 minutes at room temperature, followed by permeabilization with 70% ethanol. Cells were incubated at −20° C. for a minimum of 1 hour and maximum of 72 hours, after which the ethanol was removed, and cells were washed with PBS. Cells were rehydrated with 30% formamide and 2×SSC buffer for 10 minutes at room temperature. Cells were then incubated overnight at 37° C. in the hybridization solution containing 30% formamide, 2×SSC, 55 mg/mL dextran sulfate, 2.75 mg/mL bovine serum albumin, 0.2 μg/mL Herring sperm DNA, 1% vanadyl-ribonucleoside complex, and 0.05% 10 μM CAG10-Cy3 probe. Cells were washed twice with 30% formamide in 2×SSC, incubating the cells while shaking with the second wash at 37° C. and 200 rpm for 60 minutes. Cells were stained with 5 mg/mL DAPI 1:1000 in PBS, incubating at room temperature for 5 minutes. Cells were then washed with PBS and sealed with adhesive foil, with each well containing a final volume of 150 μL PBS. Cells were imaged on a Cytation 5 and analyzed on a foci per nucleus basis.

For the molecule `CN(CCCNC(=O)c1cccc(C(=O)O)c1)CCCNC(=O)c1nc(NC(=O)c2cc(NC(=O)CCNC(=O)c3nc(NC(=O)CCCNC(=O)c4cc(NC(=O)c5nc(NC(=O)CCNC(=O)c6cc(NC(=O)c7nccn7C)cn6C)cn5C)cn4C)cn3C)cn2C)cn1C` [Compound B-109], the EC50 (in assay [1]; in the assay on F35T cells) was 100 to 500 nM throughout.

With `CCCCCn1cc(NC(=O)c2nc(NC(=O)CCNC(=O)c3cc(NC(=O)c4nccn4C)cn3C)cn2C)cc1C(=O)NCCCC(=O)Nc1cn(C)c(C(=O)NCCC(=O)Nc2cc(C(=O)Nc3cn(C)c(C(=O)NCCC(=O)NCCC)n3)n(C)c2)n1` [Compound B-322], the EC50 in assay [1] is < 100 nM; in the assay with F35T cells it was 100 to 500 nM.

On to `Cn1cc(NC(=O)c2nc(NC(=O)CCNC(=O)c3cc(NC(=O)c4nccn4C)cn3C)cn2C)cc1C(=O)NCCCC(=O)Nc1cn(C)c(C(=O)NCCC(=O)Nc2cc(C(=O)Nc3cn(C)c(C(=O)NCCC(=O)N4CC(c5cnc(CNC(=O)c6ccc(C(C)(C)C)cc6)[nH]5)C4)n3)n(C)c2)n1` [Compound B-71], for which the EC50 (in assay [1]; in the assay on F35T cells) was 100 to 500 nM throughout.

For the molecule `Cn1cc(NC(=O)c2nc(NC(=O)CCNC(=O)c3cc(NC(=O)c4nccn4C)cn3C)cn2C)cc1C(=O)NCCCC(=O)Nc1cn(C)c(C(=O)NCCC(=O)Nc2cc(C(=O)Nc3cn(C)c(C(=O)NCCCNC(CO)CO)n3)n(C)c2)n1` [Compound B-335], the EC50 (in assay [1]; in the assay on F35T cells) was 100 to 500 nM throughout.

For the molecule `CCCNC(=O)CCNC(=O)c1nc(NC(=O)c2cc(NC(=O)CCNC(=O)c3nc(NC(=O)CCCNC(=O)c4cc(NC(=O)c5nc(NC(=O)CCNC(=O)c6cc(NC(=O)c7nccn7C)cn6C)cn5C)cn4C)cn3C)c[nH]2)cn1C` [Compound B-63], the EC50 (in assay [1]; with F35T cells) was 100 to 500 nM each time.

For `CC(=O)NCCn1cc(NC(=O)c2nc(NC(=O)CCNC(=O)c3cc(NC(=O)c4nccn4C)cn3C)cn2C)cc1C(=O)NCCCC(=O)Nc1cn(C)c(C(=O)NCCC(=O)Nc2cc(C(=O)Nc3cn(C)c(C(=O)NCCC(=O)N4CCC(C#CC#CC5CCN(C(C)=O)CC5)CC4)n3)n(C)c2)n1` [Compound B-269], the results for the EC50 (in assay [1]; in the assay with F35T cells) were 100 to 500 nM and < 100 nM, respectively.

For the molecule `CCCNC(=O)CCNC(=O)c1nc(NC(=O)c2cc(NC(=O)CCNC(=O)c3nc(NC(=O)CCCNC(=O)c4cc(NC(=O)c5nc(NC(=O)CCNC(=O)c6cc(NC(=O)c7nccn7C)cn6C)cn5C)cn4CCCOCCN)cn3C)cn2C)cn1C` [Compound B-301], the EC50 in assay [1] is 100 to 500 nM; in the assay with F35T cells it was < 100 nM.

For the molecule `CCCCn1cc(NC(=O)c2nc(NC(=O)CCNC(=O)c3cc(NC(=O)c4nccn4C)cn3C)cn2C)cc1C(=O)NCCCC(=O)Nc1cn(C)c(C(=O)NCCC(=O)Nc2cc(C(=O)Nc3cn(C)c(C(=O)NCCC(=O)NCCC)n3)n(C)c2)n1` [Compound B-321], the EC50 (in assay [1]; in the assay on F35T cells) was < 100 nM in each case.

In the case of `Cn1cc(NC(=O)c2nc(NC(=O)CCNC(=O)c3cc(NC(=O)c4nccn4C)cn3C)cn2C)cc1C(=O)NCCCC(=O)Nc1cn(C)c(C(=O)NCCC(=O)Nc2cc(C(=O)Nc3cn(C)c(C(=O)NCCC(=O)N4CC(c5cnc(CNC(=O)OCc6ccccc6)[nH]5)C4)n3)n(C)c2)n1` [Compound B-68], the EC50 (in assay [1]; in the assay on F35T cells) was 100 to 500 nM each time.

On to `CCN(CC)CCCC[C@H](NC(=O)C(C)C)C(=O)NCCOCCOCCOCCOCCOCCNC(=O)CCNC(=O)c1nc(NC(=O)c2cc(NC(=O)CCNC(=O)c3nc(NC(=O)CCCNC(=O)c4cc(NC(=O)c5nc(NC(=O)CCNC(=O)c6cc(NC(=O)c7nccn7C)cn6C)cn5C)cn4C)cn3C)cn2C)cn1C` [Compound B-89], for which, in assay [1], the EC50 is > 1000 nM.

As for `CCCNC(=O)c1nc(NC(=O)c2cc(NC(=O)CCNC(=O)c3nc(NC(=O)CCCNC(=O)c4cc(NC(=O)c5nc(NC(=O)CCNC(=O)c6cc(NC(=O)c7nccn7C)cn6C)cn5C)cn4CCCCCCN=[N+]=[N-])cn3C)cn2C)cn1C` [Compound B-231], the EC50 in assay [1] was 100 to 500 nM.

As for `Cn1cc(NC(=O)c2nc(NC(=O)CCNC(=O)c3cc(NC(=O)c4nccn4C)cn3C)cn2C)cc1C(=O)NCCCC(=O)Nc1cn(C)c(C(=O)NCCC(=O)Nc2cc(C(=O)Nc3cn(C)c(C(=O)NCCC(=O)Nc4ccc(C(C)(C)C)cc4)n3)n(C)c2)n1` [Compound B-180], the EC50 in assay [1] is > 1000 nM.

For `CC(=O)N1CCC(NC(=O)CCNC(=O)c2nc(NC(=O)c3cc(NC(=O)CCNC(=O)c4nc(NC(=O)CCCNC(=O)c5cc(NC(=O)c6nc(NC(=O)CCNC(=O)c7cc(NC(=O)c8nccn8C)cn7C)cn6C)cn5C)cn4C)cn3C)cn2C)CC1` [Compound B-141], the EC50 in assay [1] was > 1000 nM.

As for `CCCNC(=O)CCNC(=O)c1nc(NC(=O)c2cc(NC(=O)CCNC(=O)c3nc(NC(=O)CCCNC(=O)c4cc(NC(=O)c5nc(NC(=O)CCNC(=O)c6cc(NC(=O)c7nccn7C)cn6C)cn5C)cn4CCCCCCNC(C)=O)cn3C)cn2C)cn1C` [Compound B-292], the EC50 in assay [1] is < 100 nM.

Take `Cn1cc(NC(=O)c2nc(NC(=O)CCNC(=O)c3cc(NC(=O)c4nccn4C)cn3C)cn2C)cc1C(=O)NCCCC(=O)Nc1cn(C)c(C(=O)NCCC(=O)Nc2cc(C(=O)Nc3cn(C)c(C(=O)NCCOCCOCCOCCN4CCC(C#CC#CC5CCN(C(=O)OC(C)(C)C)CC5)CC4)n3)n(C)c2)n1` [Compound B-199]: the EC50 in assay [1] was in the range of 100 to 500 nM.

Take `Cn1cc(NC(=O)c2nc(NC(=O)CCNC(=O)c3cc(NC(=O)c4nccn4C)cn3C)cn2C)cc1C(=O)NCCCC(=O)Nc1cn(C)c(C(=O)NCCC(=O)Nc2cc(C(=O)Nc3cn(C)c(C(=O)NCCC(=O)NCC#CC#CC4CCN(C(=O)OC(C)(C)C)CC4)n3)n(C)c2)n1` [Compound B-194]: in assay [1], the EC50 was > 1000 nM.

Turning to `CCCCCCCCCCNC(=O)CCNC(=O)c1nc(NC(=O)c2cc(NC(=O)CCNC(=O)c3nc(NC(=O)CCCNC(=O)c4cc(NC(=O)c5nc(NC(=O)CCNC(=O)c6cc(NC(=O)c7nccn7C)cn6C)cn5C)cn4C)cn3C)cn2C)cn1C` [Compound B-40], the EC50 in assay [1] was < 100 nM.

As for `Cn1cc(NC(=O)c2nc(NC(=O)CCNC(=O)c3cc(NC(=O)c4nccn4C)cn3C)cn2C)cc1C(=O)NCCCC(=O)Nc1cn(C)c(C(=O)NCCC(=O)Nc2cc(C(=O)Nc3cn(C)c(C(=O)NCCOCCOCCOc4cccc(C(=O)O)c4)n3)n(C)c2)n1` [Compound B-214], in assay [1], the EC50 lay within 500 to 1000 nM.

In the case of `CCCNC(=O)c1cc(NC(=O)c2cc(NC(=O)c3nc(NC(=O)c4nc(NC(=O)[C@@H](N)CCNC(=O)c5nc(NC(=O)CCNC(=O)c6cc(NC(=O)c7nccn7C)cn6C)cn5C)cn4C)cn3C)cn2C)cn1C` [Compound B-64], in assay [1], the EC50 was > 1000 nM.

For `Cn1cc(NC(=O)c2nc(NC(=O)CCNC(=O)c3cc(NC(=O)c4nccn4C)cn3C)cn2C)cc1C(=O)NCCCC(=O)Nc1cn(C)c(C(=O)NCCC(=O)Nc2cc(C(=O)Nc3cn(C)c(C(=O)NCCCCCCCNC(=O)c4cccc(C(=O)O)c4)n3)n(C)c2)n1` [Compound B-213], the EC50 in assay [1] was > 1000 nM.

In the case of `CCCNC(=O)c1cc(NC(=O)c2nc(NC(=O)CCNC(=O)c3cc(NC(=O)c4nc(NC(=O)[C@@H](CCNC(=O)c5cc(NC(=O)c6nc(NC(=O)CCNC(=O)c7cc(NC(=O)c8nccn8C)cn7C)cn6C)cn5C)NC(C)=O)cn4C)cn3C)cn2C)cn1C` [Compound B-7], the EC50 in assay [1] was in the range of 500 to 1000 nM.

In the case of `CN1CCC(C#CC#CCNC(=O)CCNC(=O)c2nc(NC(=O)c3cc(NC(=O)CCNC(=O)c4nc(NC(=O)CCCNC(=O)c5cc(NC(=O)c6nc(NC(=O)CCNC(=O)c7cc(NC(=O)c8nccn8C)cn7C)cn6C)cn5C)cn4C)cn3C)cn2C)CC1` [Compound B-138], the EC50 in assay [1] was > 1000 nM.
